Test results reported in patent publication US10457675B2, “Histone deacetylase inhibitors and compositions and methods of use thereof” (CHDI Foundation, Inc., priority 2014, dated 2019).

Tests used:
[1] = tested on: cellular HDAC activity (Lys-Ac); assay: Cell (Lys-Ac): cellular HDAC activity; format: cell-based
[2] = tested on: cellular histone deacetylase enzymatic activity in Jurkat E6-1 cells; assay: Cell (Lys-TFA): cellular HDAC activity in Jurkat E6-1 cells with Boc-Lys(Tfa)-AMC; format: cell-based; settings: Boc-Lys(Tfa)-AMC substrate
Method: The potency of the compounds is quantified by measuring the cellular histone deacetylase enzymatic activity using the fluorogenic substrate, Boc-Lys(Tfa)-AMC. After penetration in Jurkat E6-1 cells, the substrate is deacetylated to Boc-Lys-AMC. After cell lysis and cleavage by trypsin, the fluorophore AMC is released from the deacetylated substrate only. The fluorescence of the sample is directly related to the histone deacetylase activity in the sample.
Jurkat E6.1 cells are cultured according to standard cell culture protocols in Jurkat E6.1 Growth Media (RPMI without phenol red, 10% FBS, 10 mM HEPES, and 1 mM Sodium Pyruvate). Jurkat E6.1 cells are counted using a Coulter Counter and resuspended in Jurkat E6.1 growth media at a concentration of 75,000 cells/35 μL. 35 μL or 75,000 cells is seeded into Greiner microtitre assay plates. The plates are then incubated at 37° C. and 5% CO2 while other assay components are being prepared.
Stocks of 70 μL aliquots of the 10 mM compound in DMSO are prepared and stored at −20° C. […]
5 μL of each solution of 1:20 diluted compound from above is transferred to the Greiner microtitre assay plates with 75,000 cells/well using the Bravo. […] Finally the top read fluorescence (Excitation: 355 nm, Emission: 460 nm) is measured using PerkinElmer EnVision.

[3] = biological target: Histone Deacetylase 4 (HDAC4) catalytic domain (Homo sapiens (Human), UniProt P56524); assay: Biochemical IC50: HDAC enzymatic activity with fluorogenic substrate Boc-Lys(Tfa)-AMC
Sequence of Histone Deacetylase 4 (HDAC4) catalytic domain (P56524 648-1032): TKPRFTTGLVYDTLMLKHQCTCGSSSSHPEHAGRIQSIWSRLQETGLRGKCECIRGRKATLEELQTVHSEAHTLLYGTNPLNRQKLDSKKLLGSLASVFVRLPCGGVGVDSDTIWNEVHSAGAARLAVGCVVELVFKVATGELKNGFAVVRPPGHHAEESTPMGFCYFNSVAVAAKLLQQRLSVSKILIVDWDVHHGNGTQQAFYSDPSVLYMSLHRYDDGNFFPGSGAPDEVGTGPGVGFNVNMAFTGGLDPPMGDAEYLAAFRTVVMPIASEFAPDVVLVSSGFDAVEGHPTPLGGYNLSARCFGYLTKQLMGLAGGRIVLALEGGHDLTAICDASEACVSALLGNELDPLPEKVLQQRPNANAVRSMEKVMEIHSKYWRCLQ
Method: The potency of compounds is quantified by measuring the Histone Deacetylase 4 (HDAC4) catalytic domain enzymatic activity using the fluorogenic substrate, Boc-Lys(Tfa)-AMC. The substrate is deacetylated to Boc-Lys-AMC by HDAC4. Cleavage by trypsin results in the release of the fluorophore AMC from the deacetylated substrate. The fluorescence of the sample is directly related to the histone deacetylase activity in the sample.
Stocks of 60 μL aliquots of the 10 mM compound in DMSO are prepared and stored at −20° C. From one stock aliquot of each compound to be tested and the reference compound, a 16-point serial dilution is prepared according to Table 1 using a 125 μL 16-channel Matrix multi-channel pipette (Matrix Technologies Ltd).
2 μL (200×) of each diluted solution and each control (full activity: 100% DMSO alone or full inhibition 1 mM) is stamped into V-bottomed polypropylene 384-well compound plates using either the Bravo (384-well head from Agilent) or 12.5 μL 16-channel Matrix multi-channel pipette (Matrix Technologies Ltd). […]
5 μL of each solution of 1:20 diluted compound from above is transferred to a clear bottomed, black, 384-well assay plate using the Bravo or the Janus (384-well MDT head from Perkin Elmer). […] Finally, the fluorescence is measured (Excitation: 355 nm, Emission: 460 nm) using PerkinElmer EnVision in top read mode.

IC50 [1]	IC50 [2]	IC50 [3]	Compound
> 50 µM	–	–	Cc1c(F)cccc1C1(C(=O)NO)CCc2nc(C3CC3)ncc21 (stereo in doubt) [Example 57, (R)-2-Cyclopropyl-5-(3-fluoro-2-methylphenyl)-N-hydroxy-6,7-dihydro-5H-cyclopenta[d]pyrimidine-5-carboxamide]
> 50 µM	0.37 µM	0.6 µM	5-(3-Fluoro-2-methylphenyl)-1-(4-fluorobenzyl)-N-hydroxy-4,5,6,7-tetrahydro-1H-indazole-5-carboxamide and 5-(3-fluoro-2-methylphenyl)-2-(4-fluorobenzyl)-N-hydroxy-4,5,6,7-tetrahydro-2H-indazole-5-carboxamide [Example 36]
> 50 µM	0.77 µM	–	5-(3-Fluoro-2-methylphenyl)-N-hydroxy-1-(2,2,2-trifluoroethyl)-4,5,6,7-tetrahydro-1H-indazole-5-carboxamide and 5-(3-fluoro-2-methylphenyl)-N-hydroxy-2-(2,2,2-trifluoroethyl)-4,5,6,7-tetrahydro-2H-indazole-5-carboxamide [Example 35]
